The values that follow come from patent US20260102359A1, “COMBINATION TREATMENT OF DERMAL AND TRANSDERMAL FIBROTIC DISEASES, DISORDERS AND ASSOCIATED PAIN AND INFLAMMATION” (ERESINA, LLC, priority 2022, published 2026).

The data set deals with hDMFa myofibroblast cells.

The structures appear in SMILES notation. Where a name gives a salt, the structure may show the parent alone.

Take `Cc1cccc(O)c1` [Cmpd 636, m-Cresol]: the “Compound Myofibroblast Cytotoxicity Activity” value is recorded as “++”.
For `COC(=O)Nc1nc2ccc(C(=O)c3ccccc3)cc2[nH]1` [Cmpd 637, Mebendazole] the value was “++++”; for `CCN(CCCCOC(=O)c1ccc(OC)c(OC)c1)C(C)Cc1ccc(OC)cc1.Cl` (stereo not shown) [Cmpd 638, Mebeverine Hydrochloride], “++”; for `CNC1(C)C2CCC(C2)C1(C)C.Cl` (stereo not shown) [Cmpd 639, Mecamylamine hydrochloride], “++++”.
In the case of `Cc1cccc(CN2CCN(C(c3ccccc3)c3ccc(Cl)cc3)CC2)c1.Cl.Cl` (stereo not shown) [Cmpd 641, Meclizine 2HCl] it was “++”.
For `CC(=O)O[C@]1(C(C)=O)CC[C@H]2[C@@H]3C[C@H](C)C4=CC(=O)CC[C@]4(C)[C@H]3CC[C@@]21C` [Cmpd 643, Medroxyprogesterone acetate] the value was “++”.
Consider `Cl.OC(c1cc(C(F)(F)F)nc2c(C(F)(F)F)cccc12)C1CCCCN1` (stereo not shown) [Cmpd 644, Mefloquine hydrochloride], for which the “Compound Myofibroblast Cytotoxicity Activity” value is “++++”.
For `CC(C)=CCC/C(C)=C/CC/C(C)=C/CC/C(C)=C/CC1=C(C)C(=O)c2ccccc2C1=O` [Cmpd 652, Menaquinone 4] the value was “++”; for `CC(=O)OC(C)C[N+](C)(C)C` (stereo not shown) [Cmpd 655, Methacholine chloride], “++”; for `COc1cccc(OC)c1C(=O)N[C@@H]1C(=O)N2[C@@H]1SC(C)(C)[C@@H]2C(=O)O` [Cmpd 656, Methicillin (sodium salt)], “++”.
In the case of `CSCC[C@H](N)C(=O)O` [Cmpd 657, Methionine] it was “++”; in that of `CN(Cc1cnc2nc(N)nc(N)c2n1)c1ccc(C(=O)N[C@@H](CCC(=O)[O-])C(=O)[O-])cc1.[Na+].[Na+]` [Cmpd 658, Methotrexate disodium], “++”; in that of `COC(=O)c1ccccc1O` [Cmpd 659, Methyl salicylate], “++”.
For `CS(C)(=O)=O` [Cmpd 660, Methyl Sulfonyl Methane (MSM)] the value was “+”; for `C/C1=C2/[N-][C@H]([C@H](CC(N)=O)[C@@]2(C)CCC(=O)NC[C@@H](C)OP(=O)([O-])O[C@H]2[C@@H](O)[C@@H](n3cnc4cc(C)c(C)cc43)O[C@@H]2CO)[C@]2(C)N=C(/C(C)=C3N=C(/C=C4N=C1[C@@H](CCC(N)=O)C\4(C)C)[C@@H](CCC(N)=O)[C@]\3(C)CC(N)=O)[C@@H](CCC(N)=O)[C@]2(C)CC(N)=O.[CH3-].[Co+3]` [Cmpd 662, Methylcobalamin], “++”.
Regarding `CN(C)c1ccc2nc3ccc(=[N+](C)C)cc-3sc2c1` [Cmpd 663, Methylene Blue], the “Compound Myofibroblast Cytotoxicity Activity” value is reported as “+++++”.
For `COC(=O)c1ccc(O)cc1` [Cmpd 664, Methylparaben] the value was “++”; for `COCCc1ccc(OCC(O)CNC(C)C)cc1` (stereo not shown) [Cmpd 665, Metoprolol Tartrate], “++”; for `CC(C)(C(=O)c1cccnc1)c1cccnc1` [Cmpd 667, Metyrapone], “++”.
For `CC[C@H](C)C(=O)O[C@H]1CCC=C2C=C[C@H](C)[C@H](CC[C@@H]3C[C@@H](O)CC(=O)O3)[C@H]21` [Cmpd 668, Mevastatin] the value was “+++”; for `Clc1ccc(COC(Cn2ccnc2)c2ccc(Cl)cc2Cl)c(Cl)c1` (stereo not shown) [Cmpd 671, Miconazole], “+++”; for `Clc1ccc(COC(Cn2ccnc2)c2ccc(Cl)cc2Cl)c(Cl)c1` (stereo not shown) [Cmpd 672, Miconazole Nitrate], “+++”.
On to `COc1ccc(OC)c(C(O)CNC(=O)CN)c1` (stereo not shown) [Cmpd 673, Midodrine (hydrochloride)], for which the “Compound Myofibroblast Cytotoxicity Activity” value is on record as “++++”.
For `CO[C@@H]1[C@H](N(C)C(=O)c2ccccc2)C[C@H]2O[C@]1(C)n1c3ccccc3c3c4c(c5c6ccccc6n2c5c31)C(=O)NC4` [Cmpd 674, Midostaurin (PKC412)] the value was “++”; for `CCN(CC)C(=O)C1(c2ccccc2)CC1CN` (stereo not shown) [Cmpd 676, Milnacipran HCl], “++++”; for `CCCCCCCCCCCCCCCCOP(=O)([O-])OCC[N+](C)(C)C` [Cmpd 677, Miltefosine], “+++++”.
On to `N=c1nc(N2CCCCC2)cc(N)n1OS(=O)(=O)O` [Cmpd 678, Minoxidil sulphate], for which the “Compound Myofibroblast Cytotoxicity Activity” value is listed as “++”.
In the case of `CN1CCN2c3ncccc3Cc3ccccc3C2C1` (stereo not shown) [Cmpd 679, Mirtazapine] it was “++++”; in that of `Clc1ccc(C(c2ccccc2Cl)C(Cl)Cl)cc1` (stereo not shown) [Cmpd 681, Mitotane (Lsodren)], “+++”.
In the case of `O=C1c2c(O)ccc(O)c2C(=O)c2c(NCCNCCO)ccc(NCCNCCO)c21` [Cmpd 682, Mitoxantrone HCl], the “Compound Myofibroblast Cytotoxicity Activity” value is reported as “+++++”.
For `COc1cc(Nc2ncc3c(n2)-c2ccc(Cl)cc2C(c2c(F)cccc2OC)=NC3)ccc1C(=O)O` [Cmpd 685, MLN8237 (Alisertib)] the value was “++++”; for `O=c1c(-n2ccnn2)c[nH]n1-c1cc(N2CCOCC2)ncn1` [Cmpd 687, Molidustat (BAY85-3934)], “+++”; for `C[C@@H]1C[C@H]2[C@@H]3CCC4=CC(=O)C=C[C@]4(C)[C@@]3(Cl)[C@@H](O)C[C@]2(C)[C@@]1(OC(=O)c1ccco1)C(=O)CCl` [Cmpd 688, Mometasone furoate], “++”.
For the compound `CC(C)(O)c1ccccc1CC[C@@H](SCC1(CC(=O)O)CC1)c1cccc(/C=C/c2ccc3ccc(Cl)cc3n2)c1` [Cmpd 689, Montelukast Sodium], the “Compound Myofibroblast Cytotoxicity Activity” value was “+++++”.
In the case of `CCCN(CCC)C(=O)C1=Cc2ccc(-c3ccc(C(=O)N4CCCC4)cc3)cc2N=C(N)C1` [Cmpd 690, Motolimod (VTX-2337)] it was “++”.
For `O[C@H]1[C@H](O)[C@@H](O)[C@H](O)[C@@H](O)[C@H]1O` [Cmpd 692, myo-Inositol] the value was “++++”; for `CC(=O)N[C@@H](CS)C(=O)O` [Cmpd 695, N-Acetyl-L-cysteine], “+”; for `CN(C/C=C/c1ccccc1)Cc1cccc2ccccc12` [Cmpd 696, Naftifine HCl], “++”.
For `COc1ccccc1N1CCN(CC(O)COc2cccc3ccccc23)CC1` (stereo not shown) [Cmpd 697, Naftopidil] the value was “+++”; for `COc1ccc([C@@H]2CC(=O)c3c(O)cc(O[C@@H]4O[C@H](CO)[C@@H](O)[C@H](O)[C@H]4O[C@@H]4O[C@@H](C)[C@H](O)[C@@H](O)[C@H]4O)cc3O2)cc1O` [Cmpd 702, Neohesperidin], “++”; for `NC(=O)c1cccnc1` [Cmpd 705, Niacinamide], “+”.
Turning to `COC(=O)C1=C(C)NC(C)=C(C(=O)OCCN(C)Cc2ccccc2)C1c1cccc([N+](=O)[O-])c1` (stereo not shown) [Cmpd 706, Nicardipine HCl], the “Compound Myofibroblast Cytotoxicity Activity” value is recorded as “+++”.
In the case of `CO[C@]12C[C@@H](COC(=O)c3cncc(Br)c3)CN(C)[C@@H]1Cc1cn(C)c3cccc2c13` [Cmpd 707, Nicergoline] it was “++”.
Take `O=C(Nc1ccc([N+](=O)[O-])cc1Cl)c1cc(Cl)ccc1O` [Cmpd 708, Niclosamide]: the “Compound Myofibroblast Cytotoxicity Activity” value was “++”.
In the case of `O=C(N/N=C/c1ccc([N+](=O)[O-])o1)c1ccc(O)cc1` [Cmpd 711, Nifuroxazide] it was “++”; in that of `Cc1cn(-c2cc(NC(=O)c3ccc(C)c(Nc4nccc(-c5cccnc5)n4)c3)cc(C(F)(F)F)c2)cn1` [Cmpd 712, Nilotinib monohydrochloride monohydrate], “+++”.
As for `CC1(C)NC(=O)N(c2ccc([N+](=O)[O-])c(C(F)(F)F)c2)C1=O` [Cmpd 714, Nilutamide], the “Compound Myofibroblast Cytotoxicity Activity” value is reported as “++++”.
In the case of `COC(=O)C1=C(C#N)NC(C)=C(C(=O)OC(C)C)C1c1cccc([N+](=O)[O-])c1` (stereo not shown) [Cmpd 715, Nilvadipine] it was “+++”.
In the case of `COC(=O)c1ccc2c(c1)NC(=O)/C2=C(\Nc1ccc(N(C)C(=O)CN2CCN(C)CC2)cc1)c1ccccc1` [Cmpd 716, Nintedanib (BIBF 1120)] it was “++++”; in that of `COC(=O)C1=C(C)NC(C)=C(C(=O)OCC(C)C)C1c1ccccc1[N+](=O)[O-]` (stereo not shown) [Cmpd 717, Nisoldipine], “+++”.
In the case of `CC(=O)Oc1ccccc1C(=O)Nc1ncc([N+](=O)[O-])s1` [Cmpd 718, Nitazoxanide] it was “+++”.
As for `CCOC(=O)C1=C(C)NC(C)=C(C(=O)OC)C1c1cccc([N+](=O)[O-])c1` (stereo not shown) [Cmpd 719, Nitrendipine], the “Compound Myofibroblast Cytotoxicity Activity” value was “+++”.
For `O=C1CN(/N=C/c2ccc([N+](=O)[O-])o2)C(=O)N1` [Cmpd 720, Nitrofurantoin] the value was “++++”; for `CC(Cc1ccc(O)c(O)c1)C(C)Cc1ccc(O)c(O)c1` (stereo not shown) [Cmpd 722, Nordihydroguaiaretic acid], “+++”.
In the case of `CNCCC=C1c2ccccc2CCc2ccccc21` [Cmpd 723, Nortriptyline (hydrochloride)] it was “++”; in that of `CO[C@@H]1[C@@H](OC(N)=O)[C@@H](O)[C@H](Oc2ccc3c(O)c(NC(=O)c4ccc(O)c(CC=C(C)C)c4)c(=O)oc3c2C)OC1(C)C` [Cmpd 724, Novobiocin Sodium], “++++”.
In the case of `CCCCCCCC(=O)O` [Cmpd 729, Octanoic acid] it was “++”.
As for `CCCCCCCC/C=C\CCCCCCCC(=O)O` [Cmpd 733, Oleic Acid], the “Compound Myofibroblast Cytotoxicity Activity” value was “+++”.
